pEC50: −log10 of the molar value.
molecular target: T1, FXR (Homo sapiens (Human), UniProt Q96RI1); experiment: FXR EC50 (FXR agonist potency reported with each Example); format: cell-based; conditions: not given
T1 sequence (Q96RI1 262-486): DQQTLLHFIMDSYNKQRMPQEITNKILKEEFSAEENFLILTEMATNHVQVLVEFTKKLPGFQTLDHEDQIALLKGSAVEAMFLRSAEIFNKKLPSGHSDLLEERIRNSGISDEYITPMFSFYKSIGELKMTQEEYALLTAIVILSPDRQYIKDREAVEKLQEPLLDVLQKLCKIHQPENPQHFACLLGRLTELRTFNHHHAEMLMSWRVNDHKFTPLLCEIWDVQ

pEC50	Molecule
6.53	O=C(C1CCC(F)(F)C1)N(CC12CCC(c3nnc(C4CC4)o3)(CC1)CC2)c1cccc(-c2nnc(C3CC3)o2)c1 (racemic) [Example 133, N-((4-(5-cyclopropyl-1,3,4-oxadiazol-2-yl)bicyclo[2.2.2]octan-1-yl)methyl)-N-(3-(5-cyclopropyl-1,3,4-oxadiazol-2-yl)phenyl)-3,3-difluorocyclopentane-1-carboxamide]
6.57	CC(N(C(=O)C12CC(F)(C1)C2)c1cccc(-c2cnc(C3CC3)o2)c1)C12CCC(c3nc(C4CC4)no3)(CC1)CC2 (single isomer, unassigned) [Example 215, N-(1-(4-(3-cyclopropyl-1,2,4-oxadiazol-5-yl)bicyclo[2.2.2]octan-1-yl)ethyl)-N-(3-(2-cyclopropyloxazol-5-yl)phenyl)-3-fluorobicyclo[1.1.1]pentane-1-carboxamide]
6.29	CC(N(C(=O)C12CC(F)(C1)C2)c1cccc(-c2cnc(C3CC3)o2)c1)C12CCC(c3nc(C4CC4)no3)(CC1)CC2 (single isomer, unassigned) [Example 216, N-(1-(4-(3-cyclopropyl-1,2,4-oxadiazol-5-yl)bicyclo[2.2.2]octan-1-yl)ethyl)-N-(3-(2-cyclopropyloxazol-5-yl)phenyl)-3-fluorobicyclo[1.1.1]pentane-1-carboxamide]
5.84	CC(N(C(=O)C12CC(F)(C1)C2)c1cccc(-c2nc(C3CC3)no2)c1)C12CCC(c3nc(C4CC4)no3)(CC1)CC2 (single isomer, unassigned) [Example 217, N-(1-(4-(3-cyclopropyl-1,2,4-oxadiazol-5-yl)bicyclo[2.2.2]octan-1-yl)ethyl)-N-(3-(3-cyclopropyl-1,2,4-oxadiazol-5-yl)phenyl)-3-fluorobicyclo[1.1.1]pentane-1-carboxamide]
5.95	CC(N(C(=O)C12CC(F)(C1)C2)c1cccc(-c2nc(C3CC3)no2)c1)C12CCC(c3nc(C4CC4)no3)(CC1)CC2 (single isomer, unassigned) [Example 218, N-(1-(4-(3-cyclopropyl-1,2,4-oxadiazol-5-yl)bicyclo[2.2.2]octan-1-yl)ethyl)-N-(3-(3-cyclopropyl-1,2,4-oxadiazol-5-yl)phenyl)-3-fluorobicyclo[1.1.1]pentane-1-carboxamide]
5.74	Cc1noc(-c2cccc(N(CC34CCC(c5ccc(C6CC6)cc5)(CC3)CC4)C(=O)C(C)C)c2)n1 [Example 1, N-((4-(4-cyclopropylphenyl)bicyclo[2.2.2]octan-1-yl)methyl)-N-(3-(3-methyl-1,2,4-oxadiazol-5-yl)phenyl)isobutyramide]
6.46	CCc1noc(-c2cccc(N(CC34CCC(c5nc(C)no5)(CC3)CC4)C(=O)C34CC(F)(C3)C4)c2)n1 [Example 3, N-(3-(3-ethyl-1,2,4-oxadiazol-5-yl)phenyl)-3-fluoro-N-((4-(3-methyl-1,2,4-oxadiazol-5-yl)bicyclo[2.2.2]octan-1-yl)methyl)bicyclo[1.1.1]pentane-1-carboxamide]
6.49	CCc1noc(-c2cccc(N(CC34CCC(c5nc(C6CC6)no5)(CC3)CC4)C(=O)C3CC(C(F)F)C3)c2)n1 (centres unmarked) [Example 4, N-((4-(3-cyclopropyl-1,2,4-oxadiazol-5-yl)bicyclo[2.2.2]octan-1-yl)methyl)-3-(difluoromethyl)-N-(3-(3-ethyl-1,2,4-oxadiazol-5-yl)phenyl)cyclobutane-1-carboxamide]
7.66	CCOc1ncc(-c2cccc(N(CC34CCC(c5nc(C6CC6)no5)(CC3)CC4)C(=O)C34CC(F)(C3)C4)c2)o1 [Example 7, N-((4-(3-cyclopropyl-1,2,4-oxadiazol-5-yl)bicyclo[2.2.2]octan-1-yl)methyl)-N-(3-(2-ethoxyoxazol-5-yl)phenyl)-3-fluorobicyclo[1.1.1]pentane-1-carboxamide]
5.77	CCOC(=O)c1coc(-c2cccc(N(CC34CCC(c5nc(C)no5)(CC3)CC4)C(=O)C34CC(F)(C3)C4)c2)n1 [Example 12, Ethyl 2-(3-(3-fluoro-N-((4-(3-methyl-1,2,4-oxadiazol-5-yl)bicyclo[2.2.2]octan-1-yl)methyl)bicyclo[1.1.1]pentane-1-carboxamido)phenyl)oxazole-4-carboxylate]
6.29	CCOC(=O)c1coc(-c2cccc(N(CC34CCC(c5nc(C6CC6)no5)(CC3)CC4)C(=O)C34CC(F)(C3)C4)c2)n1 [Example 13, Ethyl 2-(3-(N-((4-(3-cyclopropyl-1,2,4-oxadiazol-5-yl)bicyclo[2.2.2]octan-1-yl)methyl)-3-fluorobicyclo[1.1.1]pentane-1-carboxamido)phenyl)oxazole-4-carboxylate]
6.78	O=C(N(CC12CCC(c3nc(C4CC4)no3)(CC1)CC2)c1cccc(-c2nc(CCl)co2)c1)C12CC(F)(C1)C2 [Example 14, N-(3-(4-(chloromethyl)oxazol-2-yl)phenyl)-N-((4-(3-cyclopropyl-1,2,4-oxadiazol-5-yl)bicyclo[2.2.2]octan-1-yl)methyl)-3-fluorobicyclo[1.1.1]pentane-1-carboxamide]

Molecule	pEC50
Cc1noc(-c2cccc(N(CC34CCC(c5ccc(C6CC6)cc5)(CC3)CC4)C(=O)C3CC3)c2)n1 [Example 2, N-((4-(4-cyclopropylphenyl)bicyclo[2.2.2]octan-1-yl)methyl)-N-(3-(3-methyl-1,2,4-oxadiazol-5-yl)phenyl)cyclopropanecarboxamide]	5.51
CCc1noc(-c2cccc(N(CC34CCC(c5nc(C6CC6)no5)(CC3)CC4)C(=O)[C@H]3C[C@](O)(C(F)(F)F)C3)c2)n1 [Example 5, (1s, 3s)-N-((4-(3-cyclopropyl-1,2,4-oxadiazol-5-yl)bicyclo[2.2.2]octan-1-yl)methyl)-N-(3-(3-ethyl-1,2,4-oxadiazol-5-yl)phenyl)-3-hydroxy-3-(trifluoromethyl)cyclobutane-1-carboxamide]	6.74
CCc1noc(-c2cccc(N(CC34CCC(c5nc(C6CC6)no5)(CC3)CC4)C(=O)C34CC(F)(C3)C4)c2)n1 [Example 6, N-((4-(3-cyclopropyl-1,2,4-oxadiazol-5-yl)bicyclo[2.2.2]octan-1-yl)methyl)-N-(3-(3-ethyl-1,2,4-oxadiazol-5-yl)phenyl)-3-fluorobicyclo[1.1.1]pentane-1-carboxamide]	6.87
O=C([C@H]1C[C@](O)(C(F)(F)F)C1)N(CC12CCC(c3nc(C4CC4)no3)(CC1)CC2)c1cccc(-c2nc(C3CC3)no2)c1 [Example 9, (1s, 3s)-N-((4-(3-cyclopropyl-1,2,4-oxadiazol-5-yl)bicyclo[2.2.2]octan-1-yl)methyl)-N-(3-(3-cyclopropyl-1,2,4-oxadiazol-5-yl)phenyl)-3-hydroxy-3-(trifluoromethyl)cyclobutane-1-carboxamide]	6.82
O=C(C1CCC(F)(F)C1)N(CC12CCC(c3nc(C4CC4)no3)(CC1)CC2)c1cccc(-c2nc(C3CC3)no2)c1 (centres unmarked) [Example 11, N-((4-(3-cyclopropyl-1,2,4-oxadiazol-5-yl)bicyclo[2.2.2]octan-1-yl)methyl)-N-(3-(3-cyclopropyl-1,2,4-oxadiazol-5-yl)phenyl)-3,3-difluorocyclopentane-1-carboxamide]	6.55

molecular target: T1, FXR; experiment: transient human FXR/Gal4-luciferase reporter assay; format: cell-based; conditions: Gal4-hFXR fusion construct, HEK293 reporter cells; response relative to 8 μM GW-4064
Outline: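 HEK293 cells stably carrying a 5×Gal4 response element–firefly luciferase reporter were transiently transfected overnight with a Gal4 DBD–human FXR LBD fusion plasmid. Compound was added in DMSO and cells were incubated overnight at 37 °C, 5% CO2. Activity was read as Steady-Glo luminescence.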

pEC50	Molecule
6.24	CC(C)(F)c1nc(C23CCC(CN(c4cccc(-c5ccc(-c6nonc6N)cc5)c4)C(=O)[C@H]4C[C@](O)(C(F)(F)F)C4)(CC2)CC3)no1 [Example 662, (cis)-N-(4′-(4-amino-1,2,5-oxadiazol-3-yl)-[1,1′-biphenyl]-3-yl)-N-((4-(5-(2-fluoropropan-2-yl)-1,2,4-oxadiazol-3-yl)bicyclo[2.2.2]octan-1-yl)methyl)-3-hydroxy-3-(trifluoromethyl)cyclobutane-1-carboxamide]
6.80	CC(C)(O)CN1CC=C(c2cccc(N(CC34CCC(c5noc(C(C)(C)F)n5)(CC3)CC4)C(=O)C34CC(F)(C3)C4)c2)CC1 [Example 663, 3-fluoro-N-((4-(5-(2-fluoropropan-2-yl)-1,2,4-oxadiazol-3-yl)bicyclo[2.2.2]octan-1-yl)methyl)-N-(3-(1-(2-hydroxy-2-methylpropyl)-1,2,3,6-tetrahydropyridin-4-yl)phenyl) bicyclo[1.1.1]pentane-1-carboxamide]
7.33	CC(C)(O)c1ccc(-c2cccc(N(CC34CCC(c5noc(C(C)(C)F)n5)(CC3)CC4)C(=O)N[C@H]3C[C@]4(C[C@@H](O)C4)C3)c2)cc1 (stereo partly drawn) [Example 664, 1-((4-(5-(2-fluoropropan-2-yl)-1,2,4-oxadiazol-3-yl)bicyclo[2.2.2]octan-1-yl)methyl)-1-(4′-(2-hydroxypropan-2-yl)-[1,1′-biphenyl]-3-yl)-3-((2S,4S,6S)-6-hydroxyspiro[3.3]heptan-2-yl)urea]
5.70	CC(C)(OC(=O)N(CC12CCC(c3nc(C4CC4)no3)(CC1)CC2)c1nccc(C23CCC(C#N)(CC2)CC3)n1)C(F)(F)F [Example 665, 1,1,1-trifluoro-2-methylpropan-2-yl (4-(4-cyanobicyclo[2.2.2]octan-1-yl)pyrimidin-2-yl)((4-(3-cyclopropyl-1,2,4-oxadiazol-5-yl)bicyclo[2.2.2]octan-1-yl)methyl)carbamate]
6.30	CC(C)(O)C12CCC(c3ccnc(N(CC45CCC(c6nc(C7CC7)no6)(CC4)CC5)C(=O)OC(C)(C)C(F)(F)F)n3)(CC1)CC2 [Example 666, 1,1,1-trifluoro-2-methylpropan-2-yl ((4-(3-cyclopropyl-1,2,4-oxadiazol-5-yl)bicyclo[2.2.2]octan-1-yl)methyl)(4-(4-(2-hydroxypropan-2-yl)bicyclo[2.2.2]octan-1-yl)pyrimidin-2-yl)carbamate]

Molecule	pEC50
N-((4-(3-cyclopropyl-1,2,4-oxadiazol-5-yl)bicyclo[2.2.2]octan-1-yl)methyl)-3-fluoro-N-(3-morpholinophenyl)bicyclo[1.1.1]pentane-1-carboxamide [Example 417]	6.68

Reference: patent US11254663B2 (BRISTOL-MYERS SQUIBB COMPANY, priority 2019, dated 2022)
